Source: US9211310B2, “Use of a Chinese medicine composition in preparing medicaments for treating secondary prevention of myocardial infarction” (TASLY PHARMACEUTICAL GROUP CO., LTD, priority 2010, dated 2015)

Test system: patients after acute myocardial infarction
Test: Life quality, Seattle Angina Questionnaire (SAQ), same clinical trial
Format: in vivo, human
Conditions: PP
Source text: 3508 patients who were in accordance with the diagnostic standards of AMI for 28 days to 2 years and differentiated as Qi deficiency and blood stagnation syndrome by TCM were studied. 0.5 g Chinese medicine composition prepared by the method of EXAMPLE 1 (Coded as QSYQ) was administrated half an hour after meal, 3 times per day.
There were 19 questions in the Seattle angina questionnaire (SAQ), including 5 parts: physical limitation (PL), anginal stability (AS), anginal frequency (AF), treatment satisfaction (TS) and disease perception (DP). After being given necessary explanation by doctors, the questions were answered independently by patients.
They included the overall survival time, angina pectoris score, TCM symptom score and life quality score, where angina pectoris score, TCM symptom score and life quality score were evaluated at randomization, in 1st, 3rd, 6th, 9th, 12th month after treatment and 18th month after follow-up.
All evaluation results of SAQ were described during the period of observation, and Wilcoxon rank sum test was used for inter-group comparison.
The evaluation results in the SAQ were depicted in different observations, and inter-group comparison was tested by Wilcoxon Rank-sum test.

## CC(=O)Oc1ccccc1C(=O)O [Control group, aspirine]
Follow-up
  SAQ Question 1-4: Not limited, percent of patients: (53.63%)
  SAQ Question 1-4: Other reasons, number of patients: 10
  SAQ Question 1-4: Other reasons, percent of patients: (0.71%)
  SAQ Question 1-4: Severely limited, number of patients: 5
  SAQ Question 1-4: Severely limited, percent of patients: (0.36%)
  SAQ Question 1-4: Slightly limited, number of patients: 428
  SAQ Question 1-4: Slightly limited, percent of patients: (30.44%)
  SAQ Question 1-5: Mildly limited, number of patients: 181
  SAQ Question 1-5: Mildly limited, percent of patients: (12.87%)
  SAQ Question 1-5: Moderately limited, number of patients: 57
  SAQ Question 1-5: Moderately limited, percent of patients: (4.05%)
  SAQ Question 1-5: Not limited, number of patients: 765
  SAQ Question 1-5: Not limited, percent of patients: (54.41%)
  SAQ Question 1-5: Other reasons, number of patients: 8
  SAQ Question 1-5: Other reasons, percent of patients: (0.57%)
  SAQ Question 1-5: Severely limited, number of patients: 9
  SAQ Question 1-5: Severely limited, percent of patients: (0.64%)
  SAQ Question 1-5: Slightly limited, number of patients: 386
  SAQ Question 1-5: Slightly limited, percent of patients: (27.45%)
  SAQ Question 1-9: Mildly limited, % of cases: (20.25%)
  SAQ Question 1-9: Mildly limited, cases: 276
  SAQ Question 1-9: Moderately limited, % of cases: (21.13%)
  SAQ Question 1-9: Moderately limited, cases: 288
  SAQ Question 1-9: Not limited, % of cases: (6.09%)
  SAQ Question 1-9: Not limited, cases: 83
  SAQ Question 1-9: Other reasons, % of cases: (4.77%)
  SAQ Question 1-9: Other reasons, cases: 65
  SAQ Question 1-9: Severely-limited, % of cases: (27.29%)
  SAQ Question 1-9: Severely-limited, cases: 372
  SAQ Question 1-9: Slightly limited, % of cases: (20.47%)
  SAQ Question 1-9: Slightly limited, cases: 279
1 month after treatment
  8th question: Dissatisfied, patients (%): (0.13%)
  8th question: Highly satisfied, patients (%): (17.41%)
  8th question: Mostly dissatisfied, patients (%): (4.23%)
  8th question: Mostly satisfied, patients (%): (48.99%)
  8th question: Partly satisfied, patients (%): (29.23%)
  9th question: Few, patients (%): (25.86%)
  9th question: Mild, patients (%): (35.93%)
  9th question: Moderate, patients (%): (18.94%)
  9th question: Severe, patients (%): (2.01%)
  9th question: Uneffective, patients (%): (17.26%)
  10th question: Dissatisfied, patients (%): (22.24%)
  10th question: Highly satisfied, patients (%): (4.23%)
  10th question: Mostly dissatisfied, patients (%): (23.12%)
  10th question: Mostly satisfied, patients (%): (19.83%)
  10th question: Partly satisfied, patients (%): (30.58%)
  11th question: Continuously worried, patients (%): (6.04%)
  11th question: No worried, patients (%): (4.84%)
  11th question: Occasionally worried, patients (%): (41.24%)
  11th question: Often worried, patients (%): (21.76%)
  11th question: Seldom worried, patients (%): (26.12%)
  SAQ 4th question, 1-2 times per week: % of patients: (17.41%)
  SAQ 4th question, 1-2 times per week: number of patients: 259
  SAQ 4th question, 1-3 times per day: % of patients: (6.52%)
  SAQ 4th question, 1-3 times per day: number of patients: 97
  SAQ 4th question, <1 time per week: % of patients: (9.07%)
  SAQ 4th question, <1 time per week: number of patients: 135
  SAQ 4th question, Not used: % of patients: (53.23%)
  SAQ 4th question, Not used: number of patients: 792
  SAQ 4th question, ≧3 times per week: % of patients: (13.71%)
  SAQ 4th question, ≧3 times per week: number of patients: 204
  SAQ 4th question, ≧4 times per day: % of patients: (0.07%)
  SAQ 4th question, ≧4 times per day: number of patients: 1
  SAQ 5th question, Few: % of patients: (21.67%)
  SAQ 5th question, Few: number of patients: 322
  SAQ 5th question, Mild: % of patients: (28.94%)
  SAQ 5th question, Mild: number of patients: 430
  SAQ 5th question, Moderate: % of patients: (18.24%)
  SAQ 5th question, Moderate: number of patients: 271
  SAQ 5th question, None: % of patients: (25.44%)
  SAQ 5th question, None: number of patients: 378
  SAQ 5th question, Not medicated by doctors: % of patients: (3.57%)
  SAQ 5th question, Not medicated by doctors: number of patients: 53
  SAQ 5th question, Severe: % of patients: (2.15%)
  SAQ 5th question, Severe: number of patients: 32
  SAQ 6th question, Dissatisfied: % of patients: (0.20%)
  SAQ 6th question, Dissatisfied: number of patients: 3
  SAQ 6th question, Highly consent: % of patients: (17.86%)
  SAQ 6th question, Highly consent: number of patients: 266
  SAQ 6th question, Mostly dissatisfied: % of patients: (4.37%)
  SAQ 6th question, Mostly dissatisfied: number of patients: 65
  SAQ 6th question, Mostly satisfied: % of patients: (47.88%)
  SAQ 6th question, Mostly satisfied: number of patients: 713
  SAQ 6th question, Partly satisfied: % of patients: (29.68%)
  SAQ 6th question, Partly satisfied: number of patients: 442
  SAQ 7th question, Dissatisfied: % of patients: (0.13%)
  SAQ 7th question, Dissatisfied: number of patients: 2
  SAQ 7th question, Highly satisfied: % of patients: (23.40%)
  SAQ 7th question, Highly satisfied: number of patients: 348
  SAQ 7th question, Mostly dissatisfied: % of patients: (3.36%)
  SAQ 7th question, Mostly dissatisfied: number of patients: 50
  SAQ 7th question, Mostly satisfied: % of patients: (48.69%)
  SAQ 7th question, Mostly satisfied: number of patients: 724
  SAQ 7th question, Partly satisfied: % of patients: (24.41%)
  SAQ 7th question, Partly satisfied: number of patients: 363
  SAQ Question 1-1 Mildly limited, number of patients: 21
  SAQ Question 1-1 Mildly limited, percent of patients: (1.41%)
  SAQ Question 1-1 Moderately limited, number of patients: 9
  SAQ Question 1-1 Moderately limited, percent of patients: (0.60%)
  SAQ Question 1-1 Not limited, number of patients: 1375
  SAQ Question 1-1 Not limited, percent of patients: (92.41%)
  SAQ Question 1-1 Other reasons, number of patients: 2
  SAQ Question 1-1 Other reasons, percent of patients: (0.13%)
  SAQ Question 1-1 Severely limited, number of patients: 1
  SAQ Question 1-1 Severely limited, percent of patients: (0.07%)
  SAQ Question 1-1 Slightly limited, number of patients: 80
  SAQ Question 1-1 Slightly limited, percent of patients: (5.38%)
  SAQ Question 1-2 Mildly limited, number of patients: 30
  SAQ Question 1-2 Mildly limited, percent of patients: (2.02%)
  SAQ Question 1-2 Moderately limited, number of patients: 10
  SAQ Question 1-2 Moderately limited, percent of patients: (0.67%)
  SAQ Question 1-2 Not limited, number of patients: 1345
  SAQ Question 1-2 Not limited, percent of patients: (90.39%)
  SAQ Question 1-2 Other reasons, number of patients: 4
  SAQ Question 1-2 Other reasons, percent of patients: (0.27%)
  SAQ Question 1-2 Severely limited, number of patients: 0
  SAQ Question 1-2 Severely limited, percent of patients: (0.00%)
  SAQ Question 1-2 Slightly limited, number of patients: 99
  SAQ Question 1-2 Slightly limited, percent of patients: (6.65%)
  SAQ Question 1-6: Mildly limited, patients (%): (18.24%)
  SAQ Question 1-6: Moderately limited, patients (%): (15.53%)
  SAQ Question 1-6: Not limited, patients (%): (29.08%)
  SAQ Question 1-6: Other reasons, patients (%): (0.88%)
  SAQ Question 1-6: Severely limited, patients (%): (4.75%)
  SAQ Question 1-6: Slightly limited, patients (%): (31.53%)
  SAQ Question 1-7: Mildly limited, patients (%): (23.85%)
  SAQ Question 1-7: Moderately limited, patients (%): (17.55%)
  SAQ Question 1-7: Not limited, patients (%): (12.34%)
  SAQ Question 1-7: Other reasons, patients (%): (3.08%)
  SAQ Question 1-7: Severely limited, patients (%): (17.75%)
  SAQ Question 1-7: Slightly limited, patients (%): (25.43%)
  SAQ Question 1-8: Mildly limited, patients (%): (24.83%)
  SAQ Question 1-8: Moderately limited, patients (%): (20.79%)
  SAQ Question 1-8: Not limited, patients (%): (8.28%)
  SAQ Question 1-8: Other reasons, patients (%): (2.87%)
  SAQ Question 1-8: Severely limited, patients (%): (22.37%)
  SAQ Question 1-8: Slightly limited, patients (%): (20.86%)
3 months after treatment
  8th question: Dissatisfied, patients (%): (0.07%)
  8th question: Highly satisfied, patients (%): (19.43%)
  8th question: Mostly dissatisfied, patients (%): (2.85%)
  8th question: Mostly satisfied, patients (%): (52.31%)
  8th question: Partly satisfied, patients (%): (25.34%)
  9th question: Few, patients (%): (31.56%)
  9th question: Mild, patients (%): (32.99%)
  9th question: Moderate, patients (%): (15.51%)
  9th question: Severe, patients (%): (0.95%)
  9th question: Uneffective, patients (%): (18.98%)
  10th question: Dissatisfied, patients (%): (20.88%)
  10th question: Highly satisfied, patients (%): (4.90%)
  10th question: Mostly dissatisfied, patients (%): (22.38%)
  10th question: Mostly satisfied, patients (%): (23.47%)
  10th question: Partly satisfied, patients (%): (28.37%)
  11th question: Continuously worried, patients (%): (4.62%)
  11th question: No worried, patients (%): (4.76%)
  11th question: Occasionally worried, patients (%): (41.47%)
